Here are results for four compounds from patent publication US10358436B2, “Kinase inhibitors and method of treating cancer” (University Health Network, priority 2010, dated 2019).

Experiment [1] has as its target human PLK4 (Homo sapiens (Human), UniProt O00444). Description: PLK4 inhibition assay (indirect ELISA). As to conditions: read-out: PLK4 IC50 Ranges. Type of experiment: biochemical.
In experiment [2] the target is T1, Aurora A (Homo sapiens (Human), UniProt O14965). Description: Aurora A inhibition assay (Z-Lyte). Type of experiment: biochemical.
T1 sequence (O14965 whole entry): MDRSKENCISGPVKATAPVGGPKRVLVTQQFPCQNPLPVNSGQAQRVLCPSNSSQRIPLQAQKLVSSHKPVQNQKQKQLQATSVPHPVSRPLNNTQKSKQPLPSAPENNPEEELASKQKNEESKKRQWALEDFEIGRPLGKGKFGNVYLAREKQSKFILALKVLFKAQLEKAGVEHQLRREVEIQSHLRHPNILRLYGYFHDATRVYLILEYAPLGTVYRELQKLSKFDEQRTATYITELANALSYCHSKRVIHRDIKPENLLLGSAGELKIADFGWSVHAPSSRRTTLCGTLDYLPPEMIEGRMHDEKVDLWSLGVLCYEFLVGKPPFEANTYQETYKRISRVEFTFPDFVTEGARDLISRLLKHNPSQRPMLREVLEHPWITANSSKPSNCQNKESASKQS
For experiment [3], the target named is T2, Aurora B (Homo sapiens (Human), UniProt Q96GD4). Description: Aurora B inhibition assay (Z-Lyte). It is filed as biochemical. As to conditions: read-out: Aurora B IC50 Ranges.
T2 sequence (Q96GD4 whole entry): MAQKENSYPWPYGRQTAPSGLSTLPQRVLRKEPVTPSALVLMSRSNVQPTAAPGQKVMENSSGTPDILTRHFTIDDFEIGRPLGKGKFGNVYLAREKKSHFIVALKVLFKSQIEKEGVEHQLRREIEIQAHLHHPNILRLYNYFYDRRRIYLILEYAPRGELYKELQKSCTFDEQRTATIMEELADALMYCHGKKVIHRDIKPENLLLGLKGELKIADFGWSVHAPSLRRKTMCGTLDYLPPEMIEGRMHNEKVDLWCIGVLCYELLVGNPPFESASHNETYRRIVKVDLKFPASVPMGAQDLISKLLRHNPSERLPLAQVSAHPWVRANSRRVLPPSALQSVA
For experiment [4], the target named is T3, FLT3 (Homo sapiens (Human), UniProt P36888). Description: FLT3 inhibition assay (Z-Lyte). It is filed as biochemical. As to conditions: read-out: Flt3 IC50 Ranges.
T3 sequence (P36888 27-993): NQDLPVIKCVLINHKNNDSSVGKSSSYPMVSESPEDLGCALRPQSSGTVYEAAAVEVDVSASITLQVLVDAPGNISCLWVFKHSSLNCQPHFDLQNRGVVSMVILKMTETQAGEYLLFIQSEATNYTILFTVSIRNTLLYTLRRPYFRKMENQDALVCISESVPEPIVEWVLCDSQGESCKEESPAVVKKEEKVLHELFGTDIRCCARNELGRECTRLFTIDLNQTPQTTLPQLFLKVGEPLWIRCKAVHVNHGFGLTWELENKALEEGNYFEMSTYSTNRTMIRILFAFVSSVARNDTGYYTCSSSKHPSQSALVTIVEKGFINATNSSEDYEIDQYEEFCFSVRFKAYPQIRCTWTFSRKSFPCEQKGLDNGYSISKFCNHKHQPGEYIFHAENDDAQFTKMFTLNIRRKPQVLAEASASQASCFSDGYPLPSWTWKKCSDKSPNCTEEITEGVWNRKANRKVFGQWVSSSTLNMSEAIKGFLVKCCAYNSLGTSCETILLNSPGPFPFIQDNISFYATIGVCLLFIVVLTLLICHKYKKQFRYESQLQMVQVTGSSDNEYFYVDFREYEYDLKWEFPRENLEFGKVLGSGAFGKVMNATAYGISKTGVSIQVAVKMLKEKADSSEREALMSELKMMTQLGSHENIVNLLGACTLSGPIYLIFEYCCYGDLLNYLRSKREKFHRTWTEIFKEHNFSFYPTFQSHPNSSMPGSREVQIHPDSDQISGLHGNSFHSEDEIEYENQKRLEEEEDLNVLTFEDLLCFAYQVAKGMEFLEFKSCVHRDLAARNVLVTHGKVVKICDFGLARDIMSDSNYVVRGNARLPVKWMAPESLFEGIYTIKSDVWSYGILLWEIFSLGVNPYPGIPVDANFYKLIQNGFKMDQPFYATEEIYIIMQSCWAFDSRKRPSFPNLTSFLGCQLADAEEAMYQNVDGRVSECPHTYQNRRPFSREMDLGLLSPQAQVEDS
The target in experiment [5] is Abl (T315I) (Homo sapiens (Human), UniProt P00519, T315I). Type of experiment: biochemical. The conditions noted are these: read-out: % Inhibition @ 0.1 μM, Abl (T315I).
For experiment [6], the target named is Ros (Homo sapiens (Human), UniProt P08922). Type of experiment: biochemical. The conditions noted are these: read-out: % Inhibition @ 0.1 μM, Ros.
Ros, sequence (P08922 28-2347): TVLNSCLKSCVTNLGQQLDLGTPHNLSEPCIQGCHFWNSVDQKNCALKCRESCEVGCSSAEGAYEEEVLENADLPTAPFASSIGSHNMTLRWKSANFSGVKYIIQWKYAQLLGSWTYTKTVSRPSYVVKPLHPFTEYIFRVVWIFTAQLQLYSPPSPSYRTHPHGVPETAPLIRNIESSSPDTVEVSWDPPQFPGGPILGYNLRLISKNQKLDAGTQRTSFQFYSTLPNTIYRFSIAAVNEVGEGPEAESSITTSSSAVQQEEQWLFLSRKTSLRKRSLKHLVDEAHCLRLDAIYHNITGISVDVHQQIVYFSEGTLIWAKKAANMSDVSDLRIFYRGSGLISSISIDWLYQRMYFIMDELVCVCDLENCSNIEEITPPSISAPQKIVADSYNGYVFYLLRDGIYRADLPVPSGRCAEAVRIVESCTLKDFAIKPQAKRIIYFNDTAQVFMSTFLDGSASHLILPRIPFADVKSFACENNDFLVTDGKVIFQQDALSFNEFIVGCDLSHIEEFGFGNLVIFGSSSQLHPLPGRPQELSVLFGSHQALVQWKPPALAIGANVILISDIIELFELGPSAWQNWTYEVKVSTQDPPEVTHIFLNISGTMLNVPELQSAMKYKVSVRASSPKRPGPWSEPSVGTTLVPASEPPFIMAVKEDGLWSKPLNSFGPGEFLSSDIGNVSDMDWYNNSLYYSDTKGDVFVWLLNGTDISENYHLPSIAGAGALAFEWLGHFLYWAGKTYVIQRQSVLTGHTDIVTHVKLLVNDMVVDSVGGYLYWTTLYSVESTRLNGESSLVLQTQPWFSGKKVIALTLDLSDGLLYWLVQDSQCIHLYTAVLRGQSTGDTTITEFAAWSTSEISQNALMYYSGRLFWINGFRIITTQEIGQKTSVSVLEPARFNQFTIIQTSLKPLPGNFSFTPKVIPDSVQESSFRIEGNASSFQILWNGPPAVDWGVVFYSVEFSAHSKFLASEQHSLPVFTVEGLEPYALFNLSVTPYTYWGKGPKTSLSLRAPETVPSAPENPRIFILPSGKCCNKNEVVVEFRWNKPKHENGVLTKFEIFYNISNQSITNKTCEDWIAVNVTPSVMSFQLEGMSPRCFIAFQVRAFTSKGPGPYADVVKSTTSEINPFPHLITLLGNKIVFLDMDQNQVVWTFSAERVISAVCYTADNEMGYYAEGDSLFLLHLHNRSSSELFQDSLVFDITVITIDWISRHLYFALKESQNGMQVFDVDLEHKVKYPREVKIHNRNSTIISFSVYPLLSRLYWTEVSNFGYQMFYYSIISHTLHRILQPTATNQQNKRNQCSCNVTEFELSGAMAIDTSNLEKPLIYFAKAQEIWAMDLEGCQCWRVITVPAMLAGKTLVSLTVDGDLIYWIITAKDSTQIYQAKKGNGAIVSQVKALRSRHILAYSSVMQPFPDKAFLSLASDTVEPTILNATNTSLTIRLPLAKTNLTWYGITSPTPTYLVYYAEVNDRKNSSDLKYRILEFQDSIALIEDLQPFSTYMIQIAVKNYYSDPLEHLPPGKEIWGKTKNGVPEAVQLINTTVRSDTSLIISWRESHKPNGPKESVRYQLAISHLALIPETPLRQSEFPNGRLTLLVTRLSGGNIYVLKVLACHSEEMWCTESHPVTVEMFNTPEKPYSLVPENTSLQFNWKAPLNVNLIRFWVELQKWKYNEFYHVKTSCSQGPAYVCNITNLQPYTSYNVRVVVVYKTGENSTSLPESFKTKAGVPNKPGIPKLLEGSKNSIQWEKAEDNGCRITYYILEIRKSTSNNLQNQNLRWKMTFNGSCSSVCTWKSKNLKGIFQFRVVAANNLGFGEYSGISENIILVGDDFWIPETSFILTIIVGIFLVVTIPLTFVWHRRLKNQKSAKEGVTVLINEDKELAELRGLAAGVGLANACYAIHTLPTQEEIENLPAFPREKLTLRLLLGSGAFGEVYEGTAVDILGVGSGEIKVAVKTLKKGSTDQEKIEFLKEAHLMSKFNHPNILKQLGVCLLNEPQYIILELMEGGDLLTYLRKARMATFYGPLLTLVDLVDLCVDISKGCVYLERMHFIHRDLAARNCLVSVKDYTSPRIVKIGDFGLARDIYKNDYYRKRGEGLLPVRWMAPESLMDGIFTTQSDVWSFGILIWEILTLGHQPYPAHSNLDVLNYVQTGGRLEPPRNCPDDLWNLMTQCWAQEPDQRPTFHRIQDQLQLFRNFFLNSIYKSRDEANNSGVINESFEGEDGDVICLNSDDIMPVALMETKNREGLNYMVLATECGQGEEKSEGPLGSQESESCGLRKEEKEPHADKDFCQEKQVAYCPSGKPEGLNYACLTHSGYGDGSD
For experiment [7], the target named is Tie2 (Homo sapiens (Human), UniProt Q02763). Type of experiment: biochemical. The conditions noted are these: read-out: % Inhibition @ 0.1 μM, Tie2.
For experiment [8], the target named is Itk (Homo sapiens (Human), UniProt Q08881). It is filed as biochemical. The conditions noted are these: read-out: % Inhibition @ 0.1 μM, Itk.
For experiment [9], the target named is Abl (Q252H) (Homo sapiens (Human), UniProt P00519, Q252H). Type of experiment: biochemical. The conditions noted are these: read-out: % Inhibition @ 0.1 μM, Abl (Q252H).
The target in experiment [10] is Arg (m) (Mus musculus (Mouse), UniProt Q4JIM5). It is filed as biochemical. As to conditions: read-out: % Inhibition @ 0.1 μM, Arg (m).
Experiment [11] has as its target Abl (m) (Mus musculus (Mouse), UniProt P00520). It is filed as biochemical. The conditions noted are these: read-out: % Inhibition @ 0.1 μM, Abl (m).
In experiment [12] the target is FGFR2 (N549H) (Homo sapiens (Human), UniProt P21802, N549H). It is filed as biochemical. The conditions noted are these: read-out: % Inhibition @ 0.1 μM, FGFR2 (N549H).
Experiment [13] has as its target EphA1 (Homo sapiens (Human), UniProt P21709). It is filed as biochemical. As to conditions: read-out: % Inhibition @ 0.1 μM, EphA1.
Experiment [14] addresses Ret (V804L) (Homo sapiens (Human), UniProt P07949, V804L). It is filed as biochemical. As to conditions: read-out: % Inhibition @ 0.1 μM, Ret (V804L).
The target in experiment [15] is Tie2 (R849W) (Homo sapiens (Human), UniProt Q02763, R849W). It is filed as biochemical. The conditions noted are these: read-out: % Inhibition @ 0.1 μM, Tie2 (R849W).
For experiment [16], the target named is Lck (Homo sapiens (Human), UniProt P06239). It is filed as biochemical. As to conditions: read-out: % Inhibition @ 0.1 μM, Lck.
Experiment [17] concerns the target ALK (Homo sapiens (Human), UniProt Q9UM73). Type of experiment: biochemical. As to conditions: read-out: % Inhibition @ 0.1 μM, ALK.
Experiment [18] deals with Abl (Y253F) (Homo sapiens (Human), UniProt P00519, Y253F). Type of experiment: biochemical. As to conditions: read-out: % Inhibition @ 0.1 μM, Abl (Y253F).
For experiment [19], the target named is GCK (Homo sapiens (Human), UniProt Q12851). It is filed as biochemical. As to conditions: read-out: % Inhibition @ 0.1 μM, GCK.
Experiment [20] has as its target FGFR3 (Homo sapiens (Human), UniProt P22607). Type of experiment: biochemical. As to conditions: read-out: % Inhibition @ 0.1 μM, FGFR3.
The target in experiment [21] is T3, FLT3. The conditions noted are these: read-out: % Inhibition @ 0.1 μM, Flt3.
Experiment [22] addresses Ron (Homo sapiens (Human), UniProt Q04912). It is filed as biochemical. As to conditions: read-out: % Inhibition @ 0.1 μM, Ron.
The target in experiment [23] is T1, Aurora A. Type of experiment: biochemical. As to conditions: read-out: % Inhibition @ 0.1 μM, Aurora-A.
In experiment [24] the target is FGFR2 (Homo sapiens (Human), UniProt P21802). Type of experiment: biochemical. As to conditions: read-out: % Inhibition @ 0.1 μM, FGFR2.
Experiment [25] has as its target Tie2 (Y897S) (Homo sapiens (Human), UniProt Q02763, Y897S). It is filed as biochemical. As to conditions: read-out: % Inhibition @ 0.1 μM, Tie2 (Y897S).
For experiment [26], the target named is Arg (Homo sapiens (Human), UniProt P42684). It is filed as biochemical. The conditions noted are these: read-out: % Inhibition @ 0.1 μM, Arg.
Experiment [27] addresses EphB1 (Homo sapiens (Human), UniProt P54762). Type of experiment: biochemical. As to conditions: read-out: % Inhibition @ 0.1 μM, EphB1.
The target in experiment [28] is Abl (M351T) (Homo sapiens (Human), UniProt P00519, M351T). Type of experiment: biochemical. The conditions noted are these: read-out: % Inhibition @ 0.1 μM, Abl (M351T).
In experiment [29] the target is IRAK1 (Homo sapiens (Human), UniProt P51617). It is filed as biochemical. As to conditions: read-out: % Inhibition @ 0.1 μM, IRAK1.
Experiment [30] concerns the target FGFR1 (V561M) (Homo sapiens (Human), UniProt P11362, V561M). Type of experiment: biochemical. The conditions noted are these: read-out: % Inhibition @ 0.1 μM, FGFR1 (V561M).
Experiment [31] deals with Lck activated (Homo sapiens (Human), UniProt P06239). Type of experiment: biochemical. The conditions noted are these: read-out: % Inhibition @ 0.1 μM, Lck activated.
The target in experiment [32] is FGFR1 (Homo sapiens (Human), UniProt P11362). It is filed as biochemical. The conditions noted are these: read-out: % Inhibition @ 0.1 μM, FGFR1.
The target of experiment [33] is ARK5 (Homo sapiens (Human), UniProt O60285). Type of experiment: biochemical. As to conditions: read-out: % Inhibition @ 0.1 μM, ARK5.
For experiment [34], the target named is Abl (H396P) (Homo sapiens (Human), UniProt P00519, H396P). Type of experiment: biochemical. The conditions noted are these: read-out: % Inhibition @ 0.1 μM, Abl (H396P).
The target in experiment [35] is TRKA (Homo sapiens (Human), UniProt P04629). Type of experiment: biochemical. As to conditions: read-out: % Inhibition @ 0.1 μM, TrkA.
Experiment [36] addresses T2, Aurora B. As to conditions: read-out: % Inhibition @ 0.1 μM, Aurora-B.
Experiment [37] addresses MuSK (Homo sapiens (Human), UniProt O15146). It is filed as biochemical. The conditions noted are these: read-out: % Inhibition @ 0.1 μM, MuSK.
In experiment [38] the target is Bmx (Homo sapiens (Human), UniProt P51813). It is filed as biochemical. The conditions noted are these: read-out: % Inhibition @ 0.1 μM, Bmx.
For experiment [39], the target named is Abl (Homo sapiens (Human), UniProt P00519). It is filed as biochemical. The conditions noted are these: read-out: % Inhibition @ 0.1 μM, Abl.

Structures are written as SMILES. Counter-ions that a name gives are not always drawn.

MuSK, sequence (O15146 24-869): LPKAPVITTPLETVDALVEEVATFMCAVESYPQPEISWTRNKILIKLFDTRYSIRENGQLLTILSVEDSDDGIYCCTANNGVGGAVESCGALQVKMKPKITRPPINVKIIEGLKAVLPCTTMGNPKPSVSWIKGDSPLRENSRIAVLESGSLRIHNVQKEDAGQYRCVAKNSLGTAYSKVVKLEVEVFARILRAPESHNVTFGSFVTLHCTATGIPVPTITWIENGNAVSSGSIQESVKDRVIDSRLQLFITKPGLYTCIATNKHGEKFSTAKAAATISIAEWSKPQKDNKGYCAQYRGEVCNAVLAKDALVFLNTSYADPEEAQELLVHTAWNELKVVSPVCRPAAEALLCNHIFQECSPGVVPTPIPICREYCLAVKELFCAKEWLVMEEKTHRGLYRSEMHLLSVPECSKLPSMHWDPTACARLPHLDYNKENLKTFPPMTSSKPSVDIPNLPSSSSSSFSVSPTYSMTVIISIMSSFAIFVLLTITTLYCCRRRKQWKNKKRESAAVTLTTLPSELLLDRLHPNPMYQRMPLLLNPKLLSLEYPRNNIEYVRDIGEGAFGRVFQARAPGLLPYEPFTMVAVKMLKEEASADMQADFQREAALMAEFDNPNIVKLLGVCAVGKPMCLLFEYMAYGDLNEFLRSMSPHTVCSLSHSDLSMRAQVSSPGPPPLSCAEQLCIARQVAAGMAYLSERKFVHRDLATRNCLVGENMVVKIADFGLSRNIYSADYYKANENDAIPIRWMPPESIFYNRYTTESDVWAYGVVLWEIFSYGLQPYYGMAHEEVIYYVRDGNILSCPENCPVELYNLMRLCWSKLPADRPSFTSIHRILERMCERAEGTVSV

Usually IC50 stands for the concentration that inhibits the measured activity by half. A word on the inhibition: it is the change of the read-out against control, counted positive when it falls. Consider `COc1ccc2c(c1)[C@]1(C[C@H]1c1ccc3c(-c4cccc(C(=O)N5CCN(C)CC5)c4)n[nH]c3c1)C(=O)N2` (relative stereo) [Example A149, (1R*,2S*)-5′-methoxy-2-(3-(3-(4-methylpiperazine-1-carbonyl)phenyl)-1H-indazol-6-yl)spiro[cyclopropane-1,3′-indolin]-2′-one 2,2,2-trifluoroacetate], for which the IC50 is less than 100 nM in experiment [1], more than 1000 nM in experiment [3] and more than 1000 nM in experiment [4]. For the same compound, the inhibition at 1 µM in experiment [2] was less than 50%.

For the compound `O=C1Nc2ccccc2[C@]12C[C@H]2c1ccc2c(-c3ccc(CN4CCOCC4)cc3)n[nH]c2c1` (relative stereo) [Example A154, (1R*,2S*)-2-(3-(4-(morpholinomethyl)phenyl)-1H-indazol-6-yl)spiro[cyclopropane-1,3′-indolin]-2′-one 2,2,2-trifluoroacetate], the IC50 in experiment [1] is less than 100 nM; in experiment [3], 100 to 1000 nM; in experiment [4] it was 100 to 1000 nM. In addition, the inhibition at 1 µM in [2] is more than 50%.

For `COc1ccc2c(c1)[C@]1(C[C@H]1c1ccc3c(-c4ccc(N5CCN(C)CC5)cc4)n[nH]c3c1)C(=O)N2` [Example A39, (1R,2S)-5′-methoxy-2-(3-(4-(4-methylpiperazin-1-yl)phenyl)-1H-indazol-6-yl)spiro[cyclopropane-1,3′-indolin]-2′-one hydrochloride], the inhibition at 0.1 µM turned out to be 90% in experiment [5]; 17% in experiment [6]; 32% in experiment [7]; 9% in experiment [8]; 59% in experiment [9]; 58% in experiment [10]. In addition, the inhibition at 0.1 µM in experiment [11] is 82%; in experiment [12], 38%; in [13] it was 17%; in [14], 24%; in experiment [15], 38%; in [16], -3%. The inhibition at 0.1 µM in [17] stood at 20%; in experiment [18] it was 43%; in experiment [19], 16%; in experiment [20] it was 60%; in experiment [21] it was 2%; in experiment [22] it was 3%. Further, the inhibition at 0.1 µM in [23] came out at 70%; in [24] it was 34%; in experiment [25], 40%; in experiment [26], 61%; in experiment [27], 15%; in experiment [28], 77%. Moreover, the inhibition at 0.1 µM is 49% in experiment [29]; 18% in [30]; 62% in [31]; 10% in experiment [32]; 23% in experiment [33]; 77% in [34]. The inhibition at 0.1 µM in experiment [35] was 93%; in [36] it was 102%; in experiment [37], 72%; in experiment [38], 35%; in experiment [39], 68%.

Regarding `COc1ccc2c(c1)[C@]1(C[C@H]1c1ccc3c(/C=C/c4ccc(CN5CCOCC5)cc4)n[nH]c3c1)C(=O)N2` [Example A42, (1R,2S)-(E)-5′-methoxy-2-(3-(4-(morpholinomethyl)styryl)-1H-indazol-6-yl)spiro[cyclopropane-1,3′-indolin]-2′-one hydrochloride], the inhibition at 0.1 µM in [5] is 98%; in experiment [6], 93%; in experiment [7] it was 98%; in experiment [8], 82%; in experiment [9], 83%; in [10] it was 90%. Also, the inhibition at 0.1 µM in experiment [11] stood at 92%; in [12], 87%; in [13], […]; in experiment [14] it was 60%; in [15] it was 83%; in experiment [16] it was 77%. The inhibition at 0.1 µM worked out at 64% in experiment [17]; 75% in experiment [18]; 80% in [19]; 90% in [20]; 62% in [22]; 100% in [23]. Moreover, the inhibition at 0.1 µM in experiment [24] came to 88%; in experiment [25] it was 92%; in [26] it was 89%; in [28], 91%; in [29] it was 52%; in experiment [30], 91%. Moreover, the inhibition at 0.1 µM in [31] worked out at 90%; in experiment [32], […]; in [33], 86%; in [34], 93%; in experiment [35] it was 100%; in [37], 90%. The inhibition at 0.1 µM in [38] is 92%; in experiment [39], 77%. In addition, the inhibition at 1 µM in experiment [2] is more than 50%.
